The values below are quoted from earlier work in PubChem BioAssay AID1259410 (Chemical Carcinogenesis Research Information System (CCRIS), 2018).

The subject of the data set is rodent tumor promotion studies, tumor incidence. As to the kind of experiment: CCRIS tumor promotion studies.

On to `CC(=O)Oc1ccccc1C(=O)O`, for which the outcome runs as follows: (Carcinogen: N-(4-(5-NITRO-2-FURYL)-2-THIAZOLYL)FORMAMIDE, 24554-26-5, Doses [Carcinogen]: 0.2% IN DIET FOR 12 WK (TOTAL DOSE: 2.7 G), Doses [Promoter]: 0.5% IN DIET (TOTAL DOSE: 45.9 G) BEGINNING 2 D PRIOR TO SIMULTANEOUS ADMINISTRATION WITH CARCINOGEN FOR 12 WK THEN CONT, Route [Carcinogen]: ORAL, Route [Promoter]: ORAL, Species: RAT, Strain/Sex: F344/MALE) “urinary bladder: transitional cell carcinoma”; (Carcinogen: N-(4-(5-NITRO-2-FURYL)-2-THIAZOLYL)FORMAMIDE, 24554-26-5, Doses [Carcinogen]: 0.2% IN DIET FOR 12 WK (TOTAL DOSE: 3 G), Doses [Promoter]: 0.5% IN DIET (TOTAL DOSE: 39.9 G) BEGINNING 7 D POST LAST CARCINOGEN DOSE AND CONTINUING FOR DURATION OF STUDY (STUDY DU, Route [Carcinogen]: ORAL, Route [Promoter]: ORAL, Species: RAT, Strain/Sex: F344/MALE) “urinary bladder: transitional cell carcinoma”.

As to `CC(C)(Oc1ccc(C2CCCc3ccccc32)cc1)C(=O)O` (centres undefined), the outcome (Carcinogen: DIETHYLNITROSAMINE, 55-18-5, 2-ACETYLAMINOFLUORENE, 6292-55-3, CARBON TETRACHLORIDE, 56-23-5, Carcinogen: DIETHYLNITROSAMINE, 55-18-5, 2-ACETYLAMINOFLUORENE, 6292-55-3, CARBON TETRACHLORIDE, 56-23-5, Doses [Carcinogen]: 200 MG/KG ONCE FOLLOWED 2 WK LATER BY 0.03% 2-ACETYLAMINOFLUORENE IN DIET FOR 2 WK PLUS 2 ML/KG CARBON TETRACHLORIDE IN, Doses [Promoter]: 0.1% IN DIET STARTING 1 WK POST 2-ACETYLAMINOFLUORENE AND CONTINUED FOR 6 MO (STUDY DURATION: 7 MO), Route [Carcinogen]: INTRAPERITONEAL, ORAL, INTRAGASTRIC, Route [Carcinogen]: INTRAPERITONEAL, ORAL, INTRAGASTRIC, Route [Promoter]: ORAL, Species: RAT, Strain/Sex: WISTAR/MALE) was “liver: hepatocellular carcinoma”.

As to `C=C(C)[C@@]12OC3(c4ccccc4)O[C@@H]1[C@@H]1[C@@H]4OC4(CO)[C@@H](O)[C@]4(O)C(=O)C(C)=C[C@H]4[C@@]1(O3)[C@H](C)[C@H]2OC(=O)/C=C/C=C/c1ccccc1` (some centres undefined), under “Carcinogen: 7,12-DIMETHYLBENZ[A]ANTHRACENE, 57-97-6, Doses [Carcinogen]: 10 NMOL APPLIED TO BACK ONCE, Doses [Promoter]: 9 NMOL 2/WK FOR 19 WK BEGINNING 1 WK POST CARCINOGEN DOSE (STUDY DURATION: 40 WK), Route [Carcinogen]: DERMAL, Route [Promoter]: DERMAL, Species: MOUSE, Strain/Sex: HRA/SKH/FEMALE”, the outcome is listed as “skin: papilloma”.

As to `ClC1=C(Cl)C2(Cl)C3C(Cl)C=CC3C1(Cl)C2(Cl)Cl` (centres undefined), where the note is “Carcinogen: DIETHYLNITROSAMINE, 55-18-5, Doses [Carcinogen]: 20 PPM IN DRINKING WATER FOR 14 WK, Doses [Promoter]: 0, 5, 10 PPM TECHNICAL GRADE IN DIET BEGINNING 4 WK POST LAST CARCINOGEN DOSE AND CONTINUING FOR 25 WK (STUDY DURATION:, Doses [Promoter]: 0, 5, 10 PPM TECHNICAL GRADE IN DIET BEGINNING 4 WK POST LAST CARCINOGEN DOSE AND CONTINUING FOR 25 WK (STUDY DURATION:, Route [Carcinogen]: ORAL, Route [Promoter]: ORAL, Species: MOUSE, Strain/Sex: B6C3F1/MALE”, the outcome is “liver: adenoma or carcinoma”.

Turning to `C[C@]12CC[C@@H]3c4ccc(O)cc4CC[C@H]3[C@@H]1CC[C@@H]2OC(=O)CCc1ccccc1` (tested in a mixture with another compound), the outcome (Carcinogen: N-NITROSOMORPHOLINE, Doses [Carcinogen]: IG, Route [Carcinogen]: GAVAGE, Route [Promoter]: INTRAMUSCULAR, Species: RAT, Strain/Sex: FEMALE) is recorded as “liver”.

For `N[C@@H](CC(=O)O)C(=O)O`, the outcome is, setting by setting: (Carcinogen: N-BUTYL-N-(4-HYDROXYBUTYL)NITROSAMINE, 3817-11-6, Doses [Carcinogen]: 0.05% IN DRINKING WATER FOR 4 WK, Doses [Promoter]: 0, 5% IN DRINKING WATER FOR 36 WK BEGINNING POST CARCINOGEN TREATMENT (STUDY DURATION: 40 WK), Route [Carcinogen]: ORAL, Route [Promoter]: ORAL, Species: RAT, Strain/Sex: F344/FEMALE) “urinary bladder: carcinoma”; (Carcinogen: N-BUTYL-N-(4-HYDROXYBUTYL)NITROSAMINE, 3817-11-6, Doses [Carcinogen]: 0.05% IN DRINKING WATER FOR 4 WK, Doses [Promoter]: 0, 5% IN DRINKING WATER FOR 36 WK BEGINNING POST CARCINOGEN TREATMENT (STUDY DURATION: 40 WK), Route [Carcinogen]: ORAL, Route [Promoter]: ORAL, Species: RAT, Strain/Sex: F344/MALE) “urinary bladder: carcinoma”.

Consider `O=C(OO)c1cccc(Cl)c1`, for which the outcome (Carcinogen: 7,12-DIMETHYLBENZ(A)ANTHRACENE, Doses [Carcinogen]: TOP, Route [Carcinogen]: DERMAL, Route [Promoter]: DERMAL, Species: MOUSE, Strain/Sex: FEMALE) is “integumentary system (skin)”.

With `Cn1cnc([N+](=O)[O-])c1S`, the outcome (Carcinogen: UV IRRADIATION, Doses [Carcinogen]: 0.53 J/CM2 INCREASED BY 20% EVERY 2 WK TO 1.60 J/CM2 AND MAINTAINED AT 1.60 J/CM2 UNTIL DEATH, ADMINISTERED 5 D/WK FOR 1, Doses [Promoter]: 0, 15 UG/G BEGINNING 2 WK POST FIRST CARCINOGEN DOSE ADMINISTERED 2 HR PRIOR TO EACH CARCINOGEN DOSE (STUDY DURATION: 30, Route [Carcinogen]: DERMAL, Route [Promoter]: INTRAPERITONEAL, Species: MOUSE, Strain/Sex: SKH/HRL/FEMALE) is given as “skin: tumor”.

Consider `O=C(O)O`, for which the outcome is on record as “urinary bladder: papilloma, carcinoma” (Carcinogen: N-BUTYL-N-(4-HYDROXYBUTYL)NITROSAMINE, 3817-11-6, Doses [Carcinogen]: 0.05% IN DRINKING WATER FOR 4 WK, Doses [Promoter]: 0, 3% IN DIET FOR 32 WK BEGINNING 3 D POST LAST CARCINOGEN DOSE (STUDY DURATION: 36 WK, 3 D), Route [Carcinogen]: ORAL, Route [Promoter]: ORAL, Species: RAT, Strain/Sex: F344/MALE); “urinary bladder: papilloma” (Carcinogen: N-BUTYL-N-(4-HYDROXYBUTYL)NITROSAMINE, 3817-11-6, Doses [Carcinogen]: 0.05% IN DRINKING WATER FOR 4 WK, Doses [Promoter]: 0, 3.36% IN DIET BEGINNING POST LAST CARCINOGEN DOSE AND CONTINUING FOR 32 WK (STUDY DURATION: 37 WK), Route [Carcinogen]: ORAL, Route [Promoter]: ORAL, Species: RAT, Strain/Sex: WISTAR/MALE); “urinary bladder: papilloma” (Carcinogen: N-BUTYL-N-(4-HYDROXYBUTYL)NITROSAMINE; 3817-11-6; Doses [Carcinogen]: 0.05% IN DRINKING WATER FOR 4 WK; Doses [Promoter]: 0; 4% IN DIET BEGINNING POST LAST CARCINOGEN DOSE AND CONTINUING FOR 32 WK STUDY DURATION: 37 WK), Route [Carcinogen]: ORAL, Route [Promoter]: ORAL, Species: RAT, Strain/Sex: WISTAR/MALE); “bladder: carcinoma” (Carcinogen: O-PHENYLPHENOL, 90-43-7, Doses [Carcinogen]: 1.25% IN DIET FOR 104 WK, Doses [Promoter]: 0, 0.16% IN DIET FOR 104 WK (STUDY DURATION: 104 WK), Route [Carcinogen]: ORAL, Route [Promoter]: ORAL, Species: RAT, Strain/Sex: F344/MALE); “bladder: carcinoma” (Carcinogen: O-PHENYLPHENOL, 90-43-7, Doses [Carcinogen]: 1.25% IN DIET FOR 104 WK, Doses [Promoter]: 0, 0.32% IN DIET FOR 104 WK (STUDY DURATION: 104 WK), Route [Carcinogen]: ORAL, Route [Promoter]: ORAL, Species: RAT, Strain/Sex: F344/MALE); “bladder: carcinoma” (Carcinogen: O-PHENYLPHENOL, 90-43-7, Doses [Carcinogen]: 1.25% IN DIET FOR 104 WK, Doses [Promoter]: 0, 0.64% IN DIET FOR 104 WK (STUDY DURATION: 104 WK), Route [Carcinogen]: ORAL, Route [Promoter]: ORAL, Species: RAT, Strain/Sex: F344/MALE).

With `COc1ccc2c(c1)c(CC(=O)O)c(C)n2C(=O)c1ccc(Cl)cc1`, where the note is “Carcinogen: N-(4-(5-NITRO-2-FURYL)-2-THIAZOLYL)FORMAMIDE, 24554-26-5, Doses [Carcinogen]: 0.2% IN DIET FOR 7 WK, Doses [Promoter]: 0, 1 MG/KG/D IN DRINKING WATER FOR DURATION OF STUDY (STUDY DURATION: 92 WK), Route [Carcinogen]: ORAL, Route [Promoter]: ORAL, Species: RAT, Strain/Sex: SPRAGUE-DAWLEY/FEMALE”, the outcome is “urinary tract: tumor”.

Consider `Cc1c(N(C)CS(=O)(=O)O)c(=O)n(-c2ccccc2)n1C`, for which, where the note is “Carcinogen: DIETHYLNITROSAMINE, 55-18-5, Doses [Carcinogen]: 0.O1% IN DRINKING WATER FOR 2 WK, Doses [Promoter]: 0.4% IN DRINKING WATER 5 D/ WK FOR 72 WK BEGINNING 1 WK POST CARCINOGEN (STUDY DURATION: 83 WK), Route [Carcinogen]: ORAL, Route [Promoter]: ORAL, Species: RAT, Strain/Sex: F344/MALE”, the outcome is recorded as “liver neoplastic nodule, hepatocellular carcinoma ; kidney: adenoma”.

In the case of `O=C([O-])[C@H](O)[C@@H](O)[C@H](O)[C@H](O)CO.O=C([O-])[C@H](O)[C@@H](O)[C@H](O)[C@H](O)CO.[Cu+2]`, the outcome (Carcinogen: N-nitrosodiethylamine (DEN) (55-18-5), N-methylnitrosourea (MNU) (684-93-5), 1,2-dimethylhydrazine (DMH) (540-73-8), N-b, Carcinogen: N-nitrosodiethylamine (DEN) (55-18-5), N-methylnitrosourea (MNU) (684-93-5), 1,2-dimethylhydrazine (DMH) (540-73-8), N-b, Doses [Carcinogen]: DEN (100 mg/kg at commencement), MNU (4 injections of 20 mg/kg in first 2 wks), DMH (4 injections of 40 mg/kg in second, Doses [Carcinogen]: DEN (100 mg/kg at commencement), MNU (4 injections of 20 mg/kg in first 2 wks), DMH (4 injections of 40 mg/kg in second, Doses [Promoter]: 0, 10, 300, 3000, 6000 ppm in diet immediately after completion of initiator treatment for 25 wk, Doses [Promoter]: 0, 10, 300, 3000, 6000 ppm in diet immediately after completion of initiator treatment for 25 wk, Route [Carcinogen]: Intraperitoneal (DEN and MNU), subcutaneous (DMH), oral (BBN and DHPN), Route [Carcinogen]: Intraperitoneal (DEN and MNU), subcutaneous (DMH), oral (BBN and DHPN), Route [Promoter]: Oral, Species: Rat, Strain/Sex: BrlHan:WIST Jcl (GALAS)/Male (9-12/group)) is “liver: gst-p-positive lesions (p<0.05 at 300 and 3000 ppm and p<0.01 at 6000 ppm”.
